Laboratory results reported in the kinase profiling compilation of Christmann-Franck et al. (2016).

Legend:
Test in all cases: radiometric filter-binding kinase assay, Kinaseprofiler
ULK3 (human) = ULK3 (human) (UniProt Q6PHR2); details: compound 1.0 µM; ATP 10 µM
MAPK1 (human) = MAPK1 (human) (UniProt P28482); details: compound 10.0 µM; ATP 155 µM
PDPK1 (human) = PDPK1 (human) (UniProt O15530); details: ATP 10 µM
Sequence of PDPK1 (human) (O15530 whole entry, looked up): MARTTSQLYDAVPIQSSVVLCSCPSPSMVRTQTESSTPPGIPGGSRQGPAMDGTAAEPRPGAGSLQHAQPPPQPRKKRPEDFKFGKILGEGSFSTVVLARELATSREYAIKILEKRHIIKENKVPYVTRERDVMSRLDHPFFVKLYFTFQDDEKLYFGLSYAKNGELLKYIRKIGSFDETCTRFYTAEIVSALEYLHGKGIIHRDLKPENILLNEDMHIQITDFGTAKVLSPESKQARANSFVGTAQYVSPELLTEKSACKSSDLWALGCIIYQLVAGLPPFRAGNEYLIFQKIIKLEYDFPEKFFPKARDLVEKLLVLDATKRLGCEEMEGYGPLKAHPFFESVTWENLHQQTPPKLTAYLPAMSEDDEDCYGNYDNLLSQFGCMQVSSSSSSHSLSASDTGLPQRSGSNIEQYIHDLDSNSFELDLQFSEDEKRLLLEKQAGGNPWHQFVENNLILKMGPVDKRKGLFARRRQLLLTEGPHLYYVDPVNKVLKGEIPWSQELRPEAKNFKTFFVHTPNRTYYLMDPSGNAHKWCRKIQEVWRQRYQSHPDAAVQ

Sequence of ULK3 (human) (Q6PHR2 whole entry, looked up): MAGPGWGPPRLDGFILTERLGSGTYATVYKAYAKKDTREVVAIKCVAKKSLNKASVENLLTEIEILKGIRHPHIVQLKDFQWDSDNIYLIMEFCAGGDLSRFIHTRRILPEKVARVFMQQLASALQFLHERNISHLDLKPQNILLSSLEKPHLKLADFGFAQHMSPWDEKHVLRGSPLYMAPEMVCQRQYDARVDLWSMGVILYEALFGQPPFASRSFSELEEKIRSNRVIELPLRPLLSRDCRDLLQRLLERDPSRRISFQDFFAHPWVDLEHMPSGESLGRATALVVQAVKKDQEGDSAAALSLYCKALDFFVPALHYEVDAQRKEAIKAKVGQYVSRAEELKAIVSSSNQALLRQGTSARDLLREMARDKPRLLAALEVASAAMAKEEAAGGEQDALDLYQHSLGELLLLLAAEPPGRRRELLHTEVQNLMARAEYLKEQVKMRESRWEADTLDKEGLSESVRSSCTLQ
Sequence of MAPK1 (human) (P28482 whole entry, looked up): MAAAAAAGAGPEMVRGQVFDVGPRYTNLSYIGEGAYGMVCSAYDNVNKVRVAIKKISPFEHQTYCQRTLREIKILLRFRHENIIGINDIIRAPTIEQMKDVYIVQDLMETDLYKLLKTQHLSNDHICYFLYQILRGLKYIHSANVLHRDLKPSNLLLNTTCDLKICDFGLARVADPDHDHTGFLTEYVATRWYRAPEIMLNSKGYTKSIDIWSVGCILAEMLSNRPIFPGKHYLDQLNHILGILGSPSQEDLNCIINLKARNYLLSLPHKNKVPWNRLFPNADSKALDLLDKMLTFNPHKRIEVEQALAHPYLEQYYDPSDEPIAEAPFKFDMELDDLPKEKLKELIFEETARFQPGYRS

Molecule `COC(=O)[C@]1(O)C[C@@H]2O[C@@]1(C)n1c3ccccc3c3c4c(c5c6ccccc6n2c5c31)C(=O)NC4` has a residual activity (ULK3 (human)) of 0%, a residual activity (MAPK1 (human)) of -3% and a residual activity (PDPK1 (human); compound 1.0 µM) of -1%. It also gave a residual activity (PDPK1 (human); compound 10.0 µM) of 0%.
